For 24 compounds, IC50 results are on record in patent US20260207602A1, “EGFR INHIBITORS” (Blueprint Medicines Corporation, priority 2022, published 2026).

Experiment [1] has as its target intracellular phosphorylation of EGFR (Tyr1068) in PC-9 cells (Homo sapiens, UniProt P00533, DEL746-750). Put plainly: PC-9 pEGFR AlphaLISA assay. The following applies: 4 hours incubation, read-out: Phos EGFR PC9 IC50. It counts as cell-based. Summed up:
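PC-9 cells (EGFR del746-750) in phenol-free DMEM/10% FBS, adhered overnight, then exposed to 10-point 4-fold compound dilutions for 4 h at 37 °C. Lysates assayed for pEGFR Tyr1068 by AlphaLISA SureFire Ultra; IC50 from percent pEGFR inhibition vs log concentration.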

Another experiment has as its target T1, EGFR (d746-750) (Homo sapiens, UniProt P00533, DEL746-750).
T1 construct: purchased SignalChem E10-122JG
Nature of the experiment: Biochemical EGFR inhibition assay (Caliper mobility shift), EGFR (d746-750). The following applies: biochemical Caliper mobility shift assay, EGFR Exon 19-del enzyme; read-out: Enz EGFR Exon 19-del IC50. Summed up:
(§1)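 Peptide phosphorylation by the mutant enzyme is followed at 25 °C with either 1.0 mM ATP or ATP at Km, in HEPES pH 7.5 containing 0.015% Brij-35 and 1.0% DMSO. After 10–20% substrate turnover, 35 mM EDTA ends the reaction and mobility shift quantifies product.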

Another experiment has as its target T2, EGFR L858R (Homo sapiens, UniProt P00533, L858R).
T2 construct: purchased SignalChem E10-122BG
Nature of the experiment: Biochemical EGFR inhibition assay (Caliper mobility shift), EGFR L858R. The following applies: biochemical Caliper mobility shift assay, EGFR L858R enzyme; read-out: Enz EGFR L858R IC50. An outline of the steps:
as §1

T1 sequence (P00533 with tags, fused parts or gaps DEL746-750 limits assumed): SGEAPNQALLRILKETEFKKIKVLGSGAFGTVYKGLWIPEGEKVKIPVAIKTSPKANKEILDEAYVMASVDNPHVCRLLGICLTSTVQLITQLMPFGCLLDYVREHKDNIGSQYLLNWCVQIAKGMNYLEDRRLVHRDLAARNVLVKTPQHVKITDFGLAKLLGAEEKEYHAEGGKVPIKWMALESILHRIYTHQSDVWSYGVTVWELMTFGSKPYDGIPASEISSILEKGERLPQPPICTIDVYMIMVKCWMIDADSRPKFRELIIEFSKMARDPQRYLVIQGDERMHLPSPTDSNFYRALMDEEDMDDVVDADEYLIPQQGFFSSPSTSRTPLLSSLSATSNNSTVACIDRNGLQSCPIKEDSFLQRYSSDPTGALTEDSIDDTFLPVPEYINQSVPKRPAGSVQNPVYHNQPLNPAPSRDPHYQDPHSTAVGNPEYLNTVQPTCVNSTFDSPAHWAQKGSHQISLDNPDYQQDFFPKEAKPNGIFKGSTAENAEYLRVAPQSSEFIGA
T2 sequence (P00533 25-1210 L858R): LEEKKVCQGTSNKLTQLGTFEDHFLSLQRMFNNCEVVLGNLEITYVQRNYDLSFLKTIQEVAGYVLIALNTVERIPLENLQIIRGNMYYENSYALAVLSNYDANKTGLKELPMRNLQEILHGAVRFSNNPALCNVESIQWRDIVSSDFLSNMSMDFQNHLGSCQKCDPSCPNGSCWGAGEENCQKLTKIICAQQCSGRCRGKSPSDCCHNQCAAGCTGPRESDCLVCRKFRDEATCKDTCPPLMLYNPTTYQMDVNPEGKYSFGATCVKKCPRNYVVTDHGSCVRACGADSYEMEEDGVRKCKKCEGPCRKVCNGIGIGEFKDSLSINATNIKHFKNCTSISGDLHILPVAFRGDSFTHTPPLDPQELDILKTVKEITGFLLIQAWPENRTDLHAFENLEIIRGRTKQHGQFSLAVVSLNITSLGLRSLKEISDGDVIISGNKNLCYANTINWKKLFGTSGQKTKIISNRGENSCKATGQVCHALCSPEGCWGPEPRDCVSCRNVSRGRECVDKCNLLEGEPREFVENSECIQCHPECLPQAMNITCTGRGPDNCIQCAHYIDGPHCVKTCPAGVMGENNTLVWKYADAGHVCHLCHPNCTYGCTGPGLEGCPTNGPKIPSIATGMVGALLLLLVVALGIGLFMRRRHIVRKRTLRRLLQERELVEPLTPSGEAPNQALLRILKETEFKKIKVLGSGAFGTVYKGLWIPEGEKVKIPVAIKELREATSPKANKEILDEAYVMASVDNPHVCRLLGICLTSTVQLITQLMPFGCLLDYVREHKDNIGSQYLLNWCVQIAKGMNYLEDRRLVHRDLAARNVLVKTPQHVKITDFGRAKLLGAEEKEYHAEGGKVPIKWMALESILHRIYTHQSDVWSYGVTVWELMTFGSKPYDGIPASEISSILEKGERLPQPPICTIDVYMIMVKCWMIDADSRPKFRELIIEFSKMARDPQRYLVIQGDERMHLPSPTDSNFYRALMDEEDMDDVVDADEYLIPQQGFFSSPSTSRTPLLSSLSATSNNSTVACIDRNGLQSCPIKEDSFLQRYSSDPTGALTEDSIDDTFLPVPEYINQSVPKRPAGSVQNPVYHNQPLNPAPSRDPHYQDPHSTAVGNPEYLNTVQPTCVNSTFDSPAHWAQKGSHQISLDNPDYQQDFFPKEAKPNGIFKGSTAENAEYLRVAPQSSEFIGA
Chain of intracellular phosphorylation of EGFR (Tyr1068) in PC-9 cells (P00533 with tags, fused parts or gaps DEL746-750): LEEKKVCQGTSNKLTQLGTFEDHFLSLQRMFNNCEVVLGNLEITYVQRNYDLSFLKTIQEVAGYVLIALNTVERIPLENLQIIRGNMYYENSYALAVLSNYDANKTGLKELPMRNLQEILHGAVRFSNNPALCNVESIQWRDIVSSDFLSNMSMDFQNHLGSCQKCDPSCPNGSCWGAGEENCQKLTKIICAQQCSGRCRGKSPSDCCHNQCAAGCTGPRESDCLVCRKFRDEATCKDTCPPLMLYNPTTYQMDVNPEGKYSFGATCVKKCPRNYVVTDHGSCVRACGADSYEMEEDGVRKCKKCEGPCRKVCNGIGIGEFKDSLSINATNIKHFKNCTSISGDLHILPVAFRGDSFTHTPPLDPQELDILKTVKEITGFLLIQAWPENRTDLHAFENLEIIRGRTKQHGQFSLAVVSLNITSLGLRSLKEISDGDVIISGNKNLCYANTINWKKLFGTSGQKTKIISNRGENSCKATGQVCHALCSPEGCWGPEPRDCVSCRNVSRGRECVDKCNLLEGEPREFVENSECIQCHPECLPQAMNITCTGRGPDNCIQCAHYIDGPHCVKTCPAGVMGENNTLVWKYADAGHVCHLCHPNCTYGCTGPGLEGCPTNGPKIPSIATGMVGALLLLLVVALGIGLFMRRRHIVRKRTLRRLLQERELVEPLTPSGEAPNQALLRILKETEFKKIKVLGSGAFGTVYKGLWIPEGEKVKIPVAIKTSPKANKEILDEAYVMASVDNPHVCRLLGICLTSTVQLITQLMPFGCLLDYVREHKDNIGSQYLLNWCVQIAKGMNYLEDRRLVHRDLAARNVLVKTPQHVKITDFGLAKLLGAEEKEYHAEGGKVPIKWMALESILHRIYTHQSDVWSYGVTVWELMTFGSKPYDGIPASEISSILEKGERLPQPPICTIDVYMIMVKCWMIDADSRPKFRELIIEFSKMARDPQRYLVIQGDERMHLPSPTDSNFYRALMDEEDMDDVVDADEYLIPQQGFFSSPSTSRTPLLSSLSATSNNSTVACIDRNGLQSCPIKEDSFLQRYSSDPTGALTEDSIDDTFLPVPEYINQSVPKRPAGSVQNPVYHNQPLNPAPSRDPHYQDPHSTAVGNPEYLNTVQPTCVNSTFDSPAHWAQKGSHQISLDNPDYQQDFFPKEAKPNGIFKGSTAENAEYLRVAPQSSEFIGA

For `CN1CCC(Oc2cc(-c3cnn(C)c3)cc3ncnc(Nc4ccc5ncsc5c4)c23)C(F)(F)C1` (stereo not drawn) [Example 2, N-(5-((3,3-difluoro-1-methylpiperidin-4-yl)oxy)-7-(1-methyl-1H-pyrazol-4-yl)quinazolin-4-yl)benzo[d]thiazol-6-amine], the half-maximal inhibitory concentration (IC50) (in experiment [1]; on EGFR (d746-750); at EGFR L858R) was not above 10 nM in each case.
As for `COc1cc(-c2cnn(C)c2)cc2ncnc(Nc3ccc4ncsc4c3F)c12` [Example 3, 7-fluoro-N-(5-methoxy-7-(1-methyl-1H-pyrazol-4-yl)quinazolin-4-yl)benzo[d]thiazol-6-amine], the values for the half-inhibitory concentration (IC50) (in experiment [1]; on EGFR (d746-750); at EGFR L858R) were 10.1 to 50 nM, not above 10 nM and not above 10 nM, respectively.
With `Cn1cc(-c2cc(O[C@H]3CC[C@H](O)CC3)c3c(Nc4ccc5ncsc5c4)ncnc3c2)cn1` [Example 5, (1r,4r)-4-((4-(benzo[d]thiazol-6-ylamino)-7-(1-methyl-1H-pyrazol-4-yl)quinazolin-5-yl)oxy)cyclohexan-1-ol], the 50% inhibitory concentration (IC50) (in experiment [1]; at EGFR (d746-750); at EGFR L858R) was not above 10 nM each time.
As to `Cn1cc(-c2cc(O[C@H]3CC[C@@H](O)CC3)c3c(Nc4ccc5ncsc5c4)ncnc3c2)cn1` [Example 11, (1s,4s)-4-((4-(benzo[d]thiazol-6-ylamino)-7-(1-methyl-1H-pyrazol-4-yl)quinazolin-5-yl)oxy)cyclohexan-1-ol], the IC50 (in experiment [1]; on EGFR (d746-750); on EGFR L858R) was not above 10 nM throughout.
For `COc1nn(C)cc1-c1cc(O[C@H]2CCCN(C)C2)c2c(Nc3ccc4ncsc4c3)ncnc2c1` [Example 12, (S)-N-(7-(3-methoxy-1-methyl-1H-pyrazol-4-yl)-5-((1-methylpiperidin-3-yl)oxy)quinazolin-4-yl)benzo[d]thiazol-6-amine], the IC50 (in experiment [1]; at EGFR (d746-750); at EGFR L858R) was not above 10 nM throughout.
Regarding `Cn1cc(-c2cc(OCC3COC3)c3c(Nc4ccc5ncsc5c4F)ncnc3c2)cn1` [Example 13, 7-fluoro-N-(7-(1-methyl-1H-pyrazol-4-yl)-5-(oxetan-3-ylmethoxy)quinazolin-4-yl)benzo[d]thiazol-6-amine], the IC50 (in experiment [1]; on EGFR (d746-750); at EGFR L858R) was not above 10 nM throughout.
With `Cn1cc(-c2cc(OC3COCC3(F)F)c3c(Nc4ccc5ncsc5c4)ncnc3c2)cn1` (stereo not drawn) [Example 14, N-(5-((4,4-difluorotetrahydrofuran-3-yl)oxy)-7-(1-methyl-1H-pyrazol-4-yl)quinazolin-4-yl)benzo[d]thiazol-6-amine], the concentration for half-maximal inhibition (IC50) in experiment [1] is 10.1 to 50 nM; at EGFR (d746-750), not above 10 nM; on EGFR L858R it was not above 10 nM.
As for `Cn1cc(-c2cc(OC3CCOCC3)c3c(Nc4ccc5ncsc5c4)ncnc3c2)cn1` [Example 15, N-(7-(1-methyl-1H-pyrazol-4-yl)-5-((tetrahydro-2H-pyran-4-yl)oxy)quinazolin-4-yl)benzo[d]thiazol-6-amine], the IC50 (in experiment [1]; on EGFR (d746-750); on EGFR L858R) was not above 10 nM each time.
Regarding `COc1nn(C)cc1-c1cc(OC2COC2)c2c(Nc3ccc4ncsc4c3)ncnc2c1` [Example 18, N-(7-(3-methoxy-1-methyl-1H-pyrazol-4-yl)-5-(oxetan-3-yloxy)quinazolin-4-yl)benzo[d]thiazol-6-amine], the IC50 (in experiment [1]; on EGFR (d746-750); at EGFR L858R) was not above 10 nM each time.
Consider `Cn1cc(-c2cc(O[C@H]3C[C@H](O)C3)c3c(Nc4ccc5ncsc5c4)ncnc3c2)cn1` [Example 19, trans-3-((4-(benzo[d]thiazol-6-ylamino)-7-(1-methyl-1H-pyrazol-4-yl)quinazolin-5-yl)oxy)cyclobutan-1-ol], for which the IC50 (in experiment [1]; on EGFR (d746-750); at EGFR L858R) was not above 10 nM throughout.
`Cn1cc(-c2cc(O[C@H]3C[C@@H](O)C3)c3c(Nc4ccc5ncsc5c4)ncnc3c2)cn1` [Example 20, cis-3-((4-(benzo[d]thiazol-6-ylamino)-7-(1-methyl-1H-pyrazol-4-yl)quinazolin-5-yl)oxy)cyclobutan-1-ol]: the IC50 (in experiment [1]; on EGFR (d746-750); on EGFR L858R) was not above 10 nM throughout.
Consider `CN(C)C1CCC(Oc2cc(-c3cnn(C)c3)cc3ncnc(Nc4ccc5ncsc5c4)c23)CC1` (stereo not drawn) [Example 21, N-(5-((4-(dimethylamino)cyclohexyl)oxy)-7-(1-methyl-1H-pyrazol-4-yl)quinazolin-4-yl)benzo[d]thiazol-6-amine], for which the IC50 (in experiment [1]; at EGFR (d746-750); on EGFR L858R) was not above 10 nM in each case.
For `Cn1cc(-c2cc(O[C@H]3CC[C@@H](N(C)C)CC3)c3c(Nc4ccc5ncsc5c4)ncnc3c2)cn1` [Example 22, N-(5-(((1s,4s)-4-(dimethylamino)cyclohexyl)oxy)-7-(1-methyl-1H-pyrazol-4-yl)quinazolin-4-yl)benzo[d]thiazol-6-amine], the IC50 (in experiment [1]; on EGFR (d746-750); at EGFR L858R) was not above 10 nM throughout.
With `CN1CC(Oc2cc(-c3cnn(C)c3)cc3ncnc(Nc4ccc5ncsc5c4)c23)C1` [Example 27, N-(7-(1-methyl-1H-pyrazol-4-yl)-5-((1-methylazetidin-3-yl)oxy)quinazolin-4-yl)benzo[d]thiazol-6-amine], the IC50 (in experiment [1]; on EGFR (d746-750); on EGFR L858R) was 10.1 to 50 nM in each case.
Regarding `Cn1cc(-c2cc(OCC3COC3)c3c(Nc4ccc5ncsc5c4)ncnc3c2)cn1` [Example 28, N-(7-(1-methyl-1H-pyrazol-4-yl)-5-(oxetan-3-ylmethoxy)quinazolin-4-yl)benzo[d]thiazol-6-amine], the IC50 in experiment [1] was 10.1 to 50 nM; at EGFR (d746-750) it was not above 10 nM; at EGFR L858R, not above 10 nM.
Regarding `Cn1cc(-c2cc(OC(CO)CO)c3c(Nc4ccc5ncsc5c4)ncnc3c2)cn1` [Example 29, 2-((4-(benzo[d]thiazol-6-ylamino)-7-(1-methyl-1H-pyrazol-4-yl)quinazolin-5-yl)oxy)propane-1,3-diol], the values for the IC50 (in experiment [1]; at EGFR (d746-750); at EGFR L858R) were 10.1 to 50 nM, not above 10 nM and not above 10 nM, respectively.
With `Cn1cc(-c2cc(OCCO)c3c(Nc4ccc5ncsc5c4)ncnc3c2)cn1` [Example 30, 2-((4-(benzo[d]thiazol-6-ylamino)-7-(1-methyl-1H-pyrazol-4-yl)quinazolin-5-yl)oxy)ethan-1-ol], the IC50 in experiment [1] is 10.1 to 50 nM; at EGFR (d746-750), not above 10 nM; on EGFR L858R it was not above 10 nM.
As for `Cn1cc(-c2cc(OC[C@H]3CCCO3)c3c(Nc4ccc5ncsc5c4)ncnc3c2)cn1` [Example 31, (R)-N-(7-(1-methyl-1H-pyrazol-4-yl)-5-((tetrahydrofuran-2-yl)methoxy)quinazolin-4-yl)benzo[d]thiazol-6-amine], the IC50 in experiment [1] was 10.1 to 50 nM; at EGFR (d746-750) it was not above 10 nM; on EGFR L858R, not above 10 nM.
On to `Cn1cc(-c2cc(OC[C@@H]3CCCO3)c3c(Nc4ccc5ncsc5c4)ncnc3c2)cn1` [Example 32, (S)-N-(7-(1-methyl-1H-pyrazol-4-yl)-5-((tetrahydrofuran-2-yl)methoxy)quinazolin-4-yl)benzo[d]thiazol-6-amine], for which the IC50 in experiment [1] was 10.1 to 50 nM; on EGFR (d746-750) it was not above 10 nM; on EGFR L858R, not above 10 nM.
Turning to `CN1CCC[C@@H]1COc1cc(-c2cnn(C)c2)cc2ncnc(Nc3ccc4ncsc4c3)c12` [Example 33, (R)-N-(7-(1-methyl-1H-pyrazol-4-yl)-5-((1-methylpyrrolidin-2-yl)methoxy)quinazolin-4-yl)benzo[d]thiazol-6-amine], the IC50 in experiment [1] was 10.1 to 50 nM; at EGFR (d746-750), not above 10 nM; on EGFR L858R, not above 10 nM.
Turning to `CN1CC[C@H](Oc2cc(-c3cnn(C)c3)cc3ncnc(Nc4ccc5ncsc5c4)c23)C1` [Example 34, (S)-N-(7-(1-methyl-1H-pyrazol-4-yl)-5-((1-methylpyrrolidin-3-yl)oxy)quinazolin-4-yl)benzo[d]thiazol-6-amine], the IC50 in experiment [1] is 10.1 to 50 nM; at EGFR (d746-750), not above 10 nM; on EGFR L858R, 10.1 to 50 nM.
On to `CN1CC[C@@H](Oc2cc(-c3cnn(C)c3)cc3ncnc(Nc4ccc5ncsc5c4)c23)C1` [Example 35, (R)-N-(7-(1-methyl-1H-pyrazol-4-yl)-5-((1-methylpyrrolidin-3-yl)oxy)quinazolin-4-yl)benzo[d]thiazol-6-amine], for which the IC50 in experiment [1] was 10.1 to 50 nM; on EGFR (d746-750) it was not above 10 nM; at EGFR L858R, 10.1 to 50 nM.
For the compound `Cn1cc(-c2cc(O[C@H]3CCOC3)c3c(Nc4ccc5ncsc5c4)ncnc3c2)cn1` [Example 36, (S)-N-(7-(1-methyl-1H-pyrazol-4-yl)-5-((tetrahydrofuran-3-yl)oxy)quinazolin-4-yl)benzo[d]thiazol-6-amine], the IC50 (in experiment [1]; on EGFR (d746-750); at EGFR L858R) was not above 10 nM in each case.
With `Cn1cc(-c2cc(O[C@@H]3CCOC3)c3c(Nc4ccc5ncsc5c4)ncnc3c2)cn1` [Example 37, (R)-N-(7-(1-methyl-1H-pyrazol-4-yl)-5-((tetrahydrofuran-3-yl)oxy)quinazolin-4-yl)benzo[d]thiazol-6-amine], the 50% inhibitory concentration (IC50) was 10.1 to 50 nM in experiment [1], not above 10 nM at EGFR (d746-750) and not above 10 nM at EGFR L858R.

For orientation: IC50 means the concentration that inhibits the measured activity by half.
